Experimental data from patent EP1457483A1, “Cationic lipids with serine backbone” (Ruhr-Universität Bochum, priority 2003, dated 2004).

System: COS-7 cells
Assay: Automated lipofection screening: GFP-luciferase reporter gene transfer (luciferase activity per protein content)
Type: cell-based, African green monkey
Details: for Maximum transfection efficiency, MW (mean value), Helper lipid: DOPE / Maximum transfection efficiency, MW (mean value), Helper lipid: CHOL / Maximum transfection efficiency, MW (mean value), Helper lipid: without: pEGFPLuc plasmid, point is thousands separator; for Maximum transfection efficiency, MW (mean value), Helper lipid: DOPE: cationic/helper lipid 1:0.5 with DOPE; for Maximum transfection efficiency, MW (mean value), Helper lipid: DOPE / Maximum transfection efficiency, MW (mean value), Helper lipid: CHOL: at the LDR giving the maximum; for Maximum transfection efficiency, MW (mean value), Helper lipid: CHOL: cationic/helper lipid 1:0.5 with cholesterol; for Maximum transfection efficiency, MW (mean value), Helper lipid: without: no helper lipid, at the LDR (1:1-15:1) giving the maximum; for times higher activity in only one of the helper lipid combinations: best combination against the other combinations
Procedure: Screening the combinatorial lipid library for lipofection properties: Goal of this first step was to compare transfection efficiency of these structurally related cationic lipids with systematically modified hydrocarbon chain compositions for the development of suitable lipofection reagents and protocols and to study the relationship between structure and transfection efficiency of this new class of cationic lipids for gene transfer. All lipids (MS-1 to MS-50, table 1) were tested using a standard protocol: From each lipid, twenty four different lipoplexes were formed containing either no helper lipid or the helper lipids DOPE and CHOL at molar amounts (1:0.5), respectively, using eight different lipid:DNA-charge ratios (LDR) from 1:1 - 15:1, resulting in a lipofection profile for each lipid. The COS-7 cell-line was used for this lipofection study since COS-7 is easy to transfect and differences between the lipids are easy to identify.
Cell culture: SV40 transformed African green monkey kidney cell line COS-7 (ATCC CRL-1651) was routinely passaged in DMEM (GIBCO BRL, Karlsruhe, Germany), respectively, supplemented with 1% L-glutamin solution (100x), 1% Penicillin/Streptomycin solution (100x) (GIBCO BRL, Karlsruhe, Germany), and 10% FCS (BioWhittaker, Verviers, Belgium) at 37°C with 5% CO2 in humidified atmosphere. For the screening cells were maintained in 96-well culture plates (Greiner, Frickenhausen, Germany) in 100 µl DMEM, 10 % FCS, 1 % Penicillin-streptomycin in a humidified atmosphere at 37 °C/5 % CO2. 24 h prior to transfection, the cells were seeded into the microtiter plate at 10,000 cells per well to reach a confluency of 50 % at the time of transfection. Dendritic cells: Dendritic cells (DC) were derived from highly purified circulating CD14(+) monocytes: In a first step, peripheral blood mononuclear leukocytes (PBL) from healthy control persons were isolated by Ficoll-Paque (Pharmacia Biotech AB, Uppsala, Sweden) density centrifugation. The following immunomagnetic purification of the monocytes from PBL was performed using CD14 Microbeads and MiniMACS high gradient magnetic separation columns (Miltenyi Biotech, Bergisch Gladbach, Germany) according to manufacturer's instructions. Isolated monocytes (5 x 10^5/well) were cultured in RPMI supplemented with 10 % FCS, or serum-free Macrophage-SFM medium (GIBCO BRL, Karlsruhe, Germany) supplemented with human recombinant GM-CSF (0.05µg/ml) and IL-4 (0.025µg/ml) (PromoCell, Heidelberg, Germany) in 6-well plates. Aliquots of the cells were reanalyzed by FACS with anti-CD14 mAbs (Pharmingen, San Diego, CA). After 5-6 days non-adherent cells were collected and purity of DCs was determined by FACS analysis using a FACSort flow cytometer (Becton Dickinson, Mountain View, CA) and the CellQuest software for data processing as recently described (Jantscheff, P. et al., J. Immunol. Methods 163(1):91-7 (1993)).

Structure (SMILES)	Maximum transfection efficiency, MW (mean value), Helper lipid: DOPE	Maximum transfection efficiency, MW (mean value), Helper lipid: CHOL	Maximum transfection efficiency, MW (mean value), Helper lipid: without	times higher activity in only one of the helper lipid combinations
CCCCCCCC/C=C\CCCCCCCC[N+](C)(CCCCCCCC/C=C\CCCCCCCC)[C@@H](CO)C(=O)NCCCCCN [compound 45]	69.821 RLU	64.111 RLU	14.092 RLU	
CCCCCCCCCCCCCCN(CCCCCCCCCCCCCC)[C@@H](CO)C(=O)NCCCCCCN [compound 22]	164.165 RLU	241.264 RLU	237.631 RLU	
CCCCCCCCCCCCCCCC[N+](C)(CCCCCCCCCCCCCCCC)[C@@H](CO)C(=O)NCCCCCCN [compound 48]	73.318 RLU	96.148 RLU	62.022 RLU	
CCCCCCCCCCCCN(CCCCCCCCCCCC)[C@@H](CO)C(=O)NCCCN [compound 6]	6.392 RLU	583 RLU	944 RLU	
CCCCCCCCCCCCCCCCCC[N+](C)(CCCCCCCCCCCCCCCCCC)[C@@H](CO)C(=O)NCCCCCCN [compound 49]	7.563 RLU	10.245 RLU	2.177 RLU	
CCCCCCCCCCCC[N+](C)(CCCCCCCCCCCC)[C@@H](CO)C(=O)NCCCCCN [compound 41]	1.535 RLU	923 RLU	946 RLU	
CCCCCCCCCCCCCCCCCCN(CCCCCCCCCCCCCCCCCC)[C@@H](CO)C(=O)NCCCCCN [compound 19]	11.743 RLU	45.026 RLU	1.118 RLU	
CCCCCCCCCCCCCCCC[N+](C)(CCCCCCCCCCCCCCCC)[C@@H](CO)C(=O)NCCCN [MS-33]				2.5 - 11.5 times
CCCCCCCCCCCC[N+](C)(CCCCCCCCCCCC)[C@@H](CO)C(=O)NCCCCN [compound 36]	26.495 RLU	3.829 RLU	2.064 RLU	
CCCCCCCCCCCC[N+](C)(CCCCCCCCCCCC)[C@@H](CO)C(=O)NCCN [compound 26]	846 RLU	16.919 RLU	3.196 RLU	
CCCCCCCCCCCCCCN(CCCCCCCCCCCCCC)[C@@H](CO)C(=O)NCCCCCN [compound 17]	453.572 RLU	237.556 RLU	249.143 RLU	
CCCCCCCCCCCCCCN(CCCCCCCCCCCCCC)[C@@H](CO)C(=O)NCCN [compound 2]	73.117 RLU	297.074 RLU	362.300 RLU	
CCCCCCCCCCCCCCCCCC[N+](C)(CCCCCCCCCCCCCCCCCC)[C@@H](CO)C(=O)NCCN [MS-29]				2.5 - 11.5 times
CCCCCCCCCCCCCCCCCC[N+](C)(CCCCCCCCCCCCCCCCCC)[C@@H](CO)C(=O)NCCCN [compound 34]	5.085 RLU	42.068 RLU	21.056 RLU	
CCCCCCCCCCCCCCCCN(CCCCCCCCCCCCCCCC)[C@@H](CO)C(=O)NCCCCCCN [compound 23]	27.118 RLU	16.398 RLU	14.969 RLU	
CCCCCCCCCCCCCCCCN(CCCCCCCCCCCCCCCC)[C@@H](CO)C(=O)NCCCCN [compound 13]	30.635 RLU	42.604 RLU	15.287 RLU	
CCCCCCCCCCCCCCCCN(CCCCCCCCCCCCCCCC)[C@@H](CO)C(=O)NCCCN [compound 8]	38.086 RLU	22.428 RLU	6.244 RLU	
CCCCCCCCCCCCCC[N+](C)(CCCCCCCCCCCCCC)[C@@H](CO)C(=O)NCCCCCCN [compound 47]	50.115 RLU	56.974 RLU	533 RLU	
CCCCCCCCCCCCCCCCN(CCCCCCCCCCCCCCCC)[C@@H](CO)C(=O)NCCN [compound 3]	18.255 RLU	66.096 RLU	4.049 RLU	
CCCCCCCCCCCCCCCC[N+](C)(CCCCCCCCCCCCCCCC)[C@@H](CO)C(=O)NCCCCN [compound 38]	71.641 RLU	156.698 RLU	30.747 RLU	
CCCCCCCC/C=C\CCCCCCCC[N+](C)(CCCCCCCC/C=C\CCCCCCCC)[C@@H](CO)C(=O)NCCN [compound 30]	57.187 RLU	251.177 RLU	99.415 RLU	
CCCCCCCC/C=C\CCCCCCCCN(CCCCCCCC/C=C\CCCCCCCC)[C@@H](CO)C(=O)NCCCN [compound 10]	92.769 RLU	28.835 RLU	13.461 RLU	
CCCCCCCCCCCC[N+](C)(CCCCCCCCCCCC)[C@@H](CO)C(=O)NCCCCCCN [compound 46]	560 RLU	766 RLU	956 RLU	
CCCCCCCCCCCCCC[N+](C)(CCCCCCCCCCCCCC)[C@@H](CO)C(=O)NCCCCCN [compound 42]	72.349 RLU	181.719 RLU	832 RLU	
CCCCCCCC/C=C\CCCCCCCCN(CCCCCCCC/C=C\CCCCCCCC)[C@@H](CO)C(=O)NCCCCN [compound 15]	340.414 RLU	243.273 RLU	232.694 RLU	
